In patent US7064119B2, “Fused bicyclic pyrimidine derivatives” (Kyorin Pharmaceutical Co., Ltd., priority 2002, dated 2006):

Legend:
[1] = molecular target: T1, NK1 receptor (Cavia porcellus, UniProt P30547); test: Test for NK1 receptor antagonist: substance P concentration-response in isolated guinea pig ileum, Schild analysis; conditions: substance P-induced contraction, 10 min pretreatment, method of Schild
T1 construct: from tissue; host or cells: isolated guinea pig ileum
Protocol: (1) Test for NK1 Receptor Antagonist
The method used was according to the method proposed by S. Dion et al.(Dion et al., Life Sciences 41(1987): 2269), to which minor modifications were made.
Guinea pigs were stunned by a blow on the head and were exsanguinated from the carotid artery and ilea were isolated. The ileum was mounted in an organ bath containing Tyrode's solution which was maintained at 32° C. and gased with 95% O2 and 5% CO2. The ileum was subjected to a resting tension of 1-gram and allowed to equilibrate for 20 minutes before the experiment was started. As a control, a concentration-response curve for substance P in the absence of any of test compounds was used. The NK1 receptor antagonist activity of each test compound was determined by a concentration-response curve obtained by pretreating at least three concentrations of the test compound for 10 minutes and subsequently applying substance P in a cumulative manner. The Kb values were determined according to the method of Schild and the results are shown in Table 1 (Schild Brit. J. Pharmacol. 14(1959): 48).
The composition of the Tyrode's solution was as follows: NaCl=136.9, KCl=2.7, CaCl2·2H2O=2.5, MgCl2·6H2O=1.0, NaH2PO4·2H2O=0.4, NaHCO3=11.9, glucose=11.1 (mmol/L)

[2] = test system: Guinea pigs; test: Cystometry test on guinea pigs (spinal cord cut), effective bladder capacity; assay type: in vivo; conditions: guinea pig
Source text: (2) Cystometry Test on Guinea Pigs
The method used was according to the method proposed by J S. Peterson et al. (Peterson J S. et al., J. Pharmacol. Methods 21(1989): 231), to which minor modifications were made.
Guinea pigs were anesthetized with halothane and the tenth thoracic spinal cord was cut in each animal. Subsequently, both ureters were ligated and were cut on the kidney-side. Polyethylene catheters were inserted into the bladder to provide an injection pathway for physiological saline and a pathway for the measurement of intravesical pressure. Each animal was restricted in a Ballman cage and was left for more than 2 hours. Subsequently, room-temperature saline was injected through the bladder catheter into the bladder at a rate of 6 mL/hr to conduct a cystometry test. Once the effective bladder capacity was stabilized, a test compound was intravenously administered into the jugular vein. The effective bladder capacity is defined as the volume of saline injected from one urination to the next. The effect of each test compound was determined as the increase in the average bladder volume, which was determined based on the average bladder volume measured 30 minutes prior to the administration of the test compound and the average bladder volume measured every 30 minutes after the administration of the test compound.

T1 sequence (P30547 whole entry): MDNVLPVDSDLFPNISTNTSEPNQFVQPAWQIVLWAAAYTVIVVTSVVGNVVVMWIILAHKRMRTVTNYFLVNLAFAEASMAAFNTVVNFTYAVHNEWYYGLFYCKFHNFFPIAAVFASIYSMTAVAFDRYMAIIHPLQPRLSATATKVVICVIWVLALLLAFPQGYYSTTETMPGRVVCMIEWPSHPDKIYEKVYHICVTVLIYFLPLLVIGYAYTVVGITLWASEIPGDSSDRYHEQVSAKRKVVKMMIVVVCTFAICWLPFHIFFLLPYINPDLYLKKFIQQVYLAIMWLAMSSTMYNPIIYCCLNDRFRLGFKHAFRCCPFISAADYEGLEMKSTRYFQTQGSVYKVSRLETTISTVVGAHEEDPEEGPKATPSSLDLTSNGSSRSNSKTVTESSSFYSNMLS

Row | Compound | Kb [1] [nM] | Increase in bladder capacity (%) ([2]; dose 0.3 mg/kg i.v.) | Increase in bladder capacity (%) ([2]; dose 1 mg/kg i.v.) | Increase in bladder capacity (%) ([2]; dose 3 mg/kg i.v.)
1 | CC(=O)N1CCN(c2nc3c(c(-c4ccccc4C)n2)C(=O)N(Cc2cc(C(F)(F)F)cc(C(F)(F)F)c2)CCCN3)CC1 [Compound of Example 4, 2-(4-acetylpiperazine-1-yl)-6-[3,5-bis(trifluoromethyl)benzyl]-5,6,7,8,9,10-hexahydro-4-(2-methylphenyl)-5-oxopyrimido[4,5-b][1,5]diazocine] | 0.148 | 43.0 |  | 
2 | CC(=O)N1CCN(c2nc(-c3ccccc3C)c3c(n2)N(C)CCCN(Cc2cc(C(F)(F)F)cc(C(F)(F)F)c2)C3=O)CC1 [Compound of Example 20] | 0.324 |  |  | 
3 | Cc1ccccc1-c1nc(N2CCOCC2)nc2c1C(=O)N(Cc1cc(C(F)(F)F)cc(C(F)(F)F)c1)CCCN2C [Compound of Example 21, 6-[3,5-bis(trifluoromethyl)benzyl]-5,6,7,8,9,10-hexahydro-10-methyl-4-(2-methylphenyl)-2-(morpholine-4-yl)-5-oxopyrimido(4,5-b][1,5]diazocine] | 0.42 |  |  | 
4 | CC(=O)N1CCN(c2nc(-c3ccccc3C)c3c(n2)N(C(C)=O)CCCN(Cc2cc(C(F)(F)F)cc(C(F)(F)F)c2)C3=O)CC1 [Compound of Example 22, 10-acetyl-2-(4-acetylpiperazine-1-yl)-6-[3,5-bis(trifluoromethyl)benzyl]-5,6,7,8,9,10-hexahydro-4-(2-methylphenyl)-5-oxopyrimido[4,5-b][1,5]diazocine] | 0.0794 |  |  | 
5 | COc1ccccc1-c1nc(N2CCS(=O)(=O)CC2)nc2c1C(=O)N(Cc1cc(C(F)(F)F)cc(C(F)(F)F)c1)CCCN2 [Compound of Example 28, 6-[3,5-bis(trifluoromethyl)benzyl]-2-(1,1-dioxothiomorpholine-4-yl)-5,6,7,8,9,10-hexahydro-4-(2-methoxyphenyl)-5-oxopyrimido[4,5-b][1,5]diazocine] | 0.169 |  |  | 
6 | Cc1ccc(-c2c3n(c(=O)c4ncccc24)CC[C@@H](C)CN(Cc2cc(C(F)(F)F)cc(C(F)(F)F)c2)C3=O)cc1 [TAK-637] | 0.269 | 12.0 | 23.8 | 20.5
